This passage reports IC50 results from BindingDB's records for doi:10.1016/j.bmcl.2005.05.127 (Wyeth Research, 2005).

Assay [1] is described as follows: Inhibitory concentration against human p21 […] cell (p21+/+) proliferation.
Assay [2] is described as follows: Inhibitory concentration against human p21 deficient cell (p21-/-) proliferation.
Assay [3] is described as follows: Inhibitory concentration against human p21 proficient cell (p21+/+) proliferation.

Bounds are passed on as bounds.

As for `COc1cc(-c2nc3sc4c(c3c(=O)[nH]2)CCCC4)cc(OC)c1OC`, in assay [1], the concentration for half-maximal inhibition (IC50) (in general, the concentration needed to halve the response being measured) is above 20 µM. On the same count and under the same terms, in the case of `O=C(c1cccs1)c1cnn2c(-c3cccc(NC(=O)C4CC4)c3)ccnc12` it was 12 µM.

With `COc1ccc(-c2nc3sc4c(c3c(=O)[nH]2)CCCC4)cc1OC`, the IC50 in assay [2] and in assay [3] was above 20 µM in each case.
